The values below come from patent US7211557B2, “Use of GLP-1 analogs and derivatives administered peripherally in regulation of obesity” (Eli Lilly and Company, priority 1996, dated 2007).

In one assay the test system is STC-1 cells. To be noted: exposure of STC-1 cells; cited from earlier work.
For assay [1] the following is noted: cited from earlier work.
The conditions of assay [2]: cited from earlier work. The source holds these as a separate data set.
Assay [3] can be described thus: Continuous subcutaneous infusion of GLP-1(7-36) amide for four weeks in NIDDM patients, preceded and followed by two weeks of intensive insulin therapy: body weight. Format: in vivo, human. To be noted: for body weight lost, average: four patients, mean±SEM.

Take `CCCCCCCCCCCCCC(=O)O[C@@H]1[C@@H](C)[C@@]2(O)[C@@H](C=C(CO)C[C@]3(O)C(=O)C(C)=C[C@@H]23)[C@@H]2C(C)(C)[C@]12OC(C)=O` [TPA, 12-O-tetradecanoylphorbol-13-acetate]: the “release of GLP-1” value with STC-1 cells is recorded as “significant increases in release of GLP-1”.

Take GLP-1(7-36) amide: in assay [1] (ICV, animals fed ad libitum), the “food intake following injection of neuropeptide Y” value is “significantly reduces food intake”. Besides, the feeding entry in assay [1] (intracerebroventricular route (ICV), fasted rats) is on record as “markedly inhibits feeding”. Moreover, the food intake entry in assay [2] (acute intraperitoneal administration in rats) is given as “does not affect food intake”. Also, in assay [2] (intraperitoneal administration, even at relatively high doses), the early dark-phase feeding result is listed as “does not affect early dark-phase feeding”. Also, the “body weight lost, average” value in assay [3] (during GLP-1 treatment (4 weeks)) came out at 3.5 ± 1.2 kg. Besides, the “Weight Change” value in assay [3] (mean±SEM of patients, GLP-1 infusion 1.2 pmol/kg/minute s.c., 4 weeks) is -3.5 ± 1.2 kg; in assay [3] (patient four, GLP-1 infusion 1.2 pmol/kg/minute s.c., 4 weeks), -3.0 kg; in assay [3] (patient one, GLP-1 infusion 1.2 pmol/kg/minute s.c., 4 weeks) it was -7.0 kg; in assay [3] (patient three, GLP-1 infusion 1.2 pmol/kg/minute s.c., 4 weeks), -1.9 kg; in assay [3] (patient two, GLP-1 infusion 1.2 pmol/kg/minute s.c., 4 weeks) it was -2.0 kg. The “Patient Weight” value in assay [3] (mean±SEM of patients, after GLP-1 infusion 1.2 pmol/kg/minute s.c., 4 weeks) was found to be 92.9 ± 5.8 kg; in assay [3] (patient four, after GLP-1 infusion 1.2 pmol/kg/minute s.c., 4 weeks), 108.0 kg; in assay [3] (patient one, after GLP-1 infusion 1.2 pmol/kg/minute s.c., 4 weeks), 92.0 kg; in assay [3] (patient three, after GLP-1 infusion 1.2 pmol/kg/minute s.c., 4 weeks) it was 80.0 kg; in assay [3] (patient two, after GLP-1 infusion 1.2 pmol/kg/minute s.c., 4 weeks) it was 91.5 kg. Moreover, the “effect on body weight” value in assay [3] (peripheral administration to obese patients) is recorded as “significant reduction in body weight”.

Consider insulin, for which the “body weight lost, average” value in assay [3] (first two weeks of intensive insulin treatment) worked out at 1.3 ± 0.6 kg. Moreover, the “Weight Change” value is “+1.0 ± 1.0 kg” in assay [3] (mean±SEM of patients (no data for MP), Second Insulin treatment, 2 weeks); -1.3 ± 0.6 kg in assay [3] (mean±SEM of patients, First Insulin treatment, 2 weeks); -2.0 kg in assay [3] (patient four, First Insulin treatment, 2 weeks); 0.0 kg in assay [3] (patient four, Second Insulin treatment, 2 weeks); -2.5 kg in assay [3] (patient one, First Insulin treatment, 2 weeks); 3.0 kg in assay [3] (patient one, Second Insulin treatment, 2 weeks). For the same molecule, the “Weight Change” value is -0.1 kg in assay [3] (patient three, First Insulin treatment, 2 weeks); -0.5 kg in assay [3] (patient two, First Insulin treatment, 2 weeks); 0.0 kg in assay [3] (patient two, Second Insulin treatment, 2 weeks). Also, the “Patient Weight” value in assay [3] (mean±SEM of patients (no data for MP), after Second Insulin treatment, 2 weeks) came out at 98.2 ± 5.0 kg; in assay [3] (mean±SEM of patients, after First Insulin treatment, 2 weeks), 96.4 ± 6.0 kg; in assay [3] (patient four, after First Insulin treatment, 2 weeks) it was 111.0 kg; in assay [3] (patient four, after Second Insulin treatment, 2 weeks), 108.0 kg; in assay [3] (patient one, after First Insulin treatment, 2 weeks), 99.0 kg; in assay [3] (patient one, after Second Insulin treatment, 2 weeks), 95.0 kg. In addition, the “Patient Weight” value came to 81.9 kg in assay [3] (patient three, after First Insulin treatment, 2 weeks); 93.5 kg in assay [3] (patient two, after First Insulin treatment, 2 weeks); 91.5 kg in assay [3] (patient two, after Second Insulin treatment, 2 weeks). Also, the “body weight change, on average” value in assay [3] (second two weeks of intensive insulin treatment) is “gained weight”.
